# Source: publication PMC7155171, “Probing the Open Global Health Chemical Diversity Library for Multistage-Active Starting Points for Next-Generation Antimalarials” (ACS Infectious Diseases, 2020)
# Read-outs that look alike come from different tables or passages of the source.
# Experiments:
# [1] = system: P. falciparum Dd2 (PfLuc) line expressing firefly luciferase, asexual blood stage; assay: microbe, parasite or virus in culture; assay type: cell-based, Plasmodium falciparum; conditions: Plasmodium falciparum
# P. falciparum Dd2 = assay: SYBR green I asexual blood stage proliferation assay (96 h); assay type: cell-based, Plasmodium falciparum; conditions: Plasmodium falciparum, DD2, 11-pt dose response, 96hr
# [2] = DD2, read-out: CDD P. falciparum Luciferase ABS 11-pt Reconfirmation Dose Response (48hr): IC50 (μM), 11-pt dose response, 48hr
# [3] = DD2, 8-pt dose response, 96hr, read-out: CDD P. falciparum Luciferase ABS 8-pt Reconfirmation Dose Response (96hr): IC50
# [4] = DD2, 8-pt dose response, 96hr, read-out: CDD P. falciparum Luciferase ABS 8-pt Reconfirmation Dose Response (96hr): Maximum inhibition (%)
# [5] = DD2, 11-pt dose response, 48hr, read-out: CDD P. falciparum Luciferase ABS 11-pt Reconfirmation Dose Response (48hr): Maximum inhibition (%)
# [6] = DD2, 11-pt dose response, 96hr, read-out: CDD P. falciparum Luciferase ABS 11-pt Reconfirmation Dose Response (96hr): IC50
# [7] = DD2, 11-pt dose response, 96hr, read-out: CDD P. falciparum Luciferase ABS 11-pt Reconfirmation Dose Response (96hr): Maximum inhibition (%)
# [8] = Sybr Green I, read-out: CDD P. falciparum Sybr Green I ABS 11-pt Reconfirmation Dose Response (96hr): IC50
# [9] = Sybr Green I, read-out: CDD P. falciparum Sybr Green I ABS 11-pt Reconfirmation Dose Response (96hr): Maximum inhibition (%)
# [10] = 96 h incubation, Dd2 luciferase, read-out: 96 hour Pfluc IC50
# [11] = DD2, read-out: P. falciparum Luciferase ABS 11-pt Reconfirmation Dose Response (48hr): IC50, 11-pt dose response, 48hr
# [12] = DD2, 8-pt dose response, 96hr, read-out: P. falciparum Luciferase ABS 8-pt Reconfirmation Dose Response (96hr): IC50
# [13] = DD2, 8-pt dose response, 96hr, read-out: P. falciparum Luciferase ABS 8-pt Reconfirmation Dose Response (96hr): Maximum inhibition (%)
# [14] = DD2, 11-pt dose response, 48hr, read-out: P. falciparum Luciferase ABS 11-pt Reconfirmation Dose Response (48hr): Maximum inhibition (%)
# [15] = DD2, 11-pt dose response, 96hr, read-out: P. falciparum Luciferase ABS 11-pt Reconfirmation Dose Response (96hr): IC50
# [16] = read-out: P. falciparum Sybr Green I ABS 11-pt Reconfirmation Dose Response (96hr): IC50
# [17] = read-out: P. falciparum Sybr Green I ABS 11-pt Reconfirmation Dose Response (96hr): Maximum inhibition (%)
# [18] = DD2, 11-pt dose response, 96hr, read-out: P. falciparum Luciferase ABS 11-pt Reconfirmation Dose Response (96hr): Maximum inhibition (%)
Structure (SMILES),"IC50 [1, 2] [µM]","IC50 [1, 3] [µM]","Emax [1, 4] [%]","Emax [1, 5] [%]","IC50 [1, 6] [µM]","Emax [1, 7] [%]",IC50 (P. falciparum Dd2; [8]) [nM],Emax (P. falciparum Dd2; [9]) [%],"IC50 [1, 10] [µM]","IC50 [1, 11] [µM]","IC50 [1, 12] [µM]","Emax [1, 13] [%]","Emax [1, 14] [%]","IC50 [1, 15] [µM]",IC50 (P. falciparum Dd2; [16]) [nM],Emax (P. falciparum Dd2; [17]) [%],"Emax [1, 18] [%]"
Fc1cnc(N2CCCC3(CCN(Cc4ccsc4)C3)C2)nc1 (centres unmarked) [DDD01085292],2.31,1,83.3,68.3,1.53,92.4,> 4160,70.7,,,,,,,,,
c1cc(-c2n[nH]cc2-c2ccnc(N3CCCCCC3)n2)ccn1 [DDD01235864],> 4.16,0.00697,93.5,62.2,0.0308,93.5,5.64,,0.03,,,,,,,,
CN(CCO)C[C@@H]1CN(C2CCN(c3ccccc3Cl)CC2)C[C@@H]1CO [DDD01243670],0.887,0.4,94.9,96.9,0.653,99.6,1340,86.9,,,,,,,,,
Oc1cccc2ccc(CN3CCC4(CCNCC4)C3)nc12 [DDD01243747],0.642,0.76,92,97.9,0.231,101,10800,75.2,,,,,,,,,
Cn1cc(CN2CCCC(CCc3ccccc3C(F)(F)F)C2)cn1 (centres unmarked) [DDD01243772],,,,,,,,,,4.26,1.59,82.8,66.1,4.34,4890,62,
NC1CCCCN(Cc2cc(-c3ccccc3OC(F)(F)F)no2)C1 (centres unmarked) [DDD01244394],,,,,,,,,,> 4.16,1.45,88.9,84.8,> 1.39,> 4160,69.6,97.5
CC1CCCCN1C(=O)c1coc(COc2cccc3cnccc23)n1 (centres unmarked) [DDD01245028],0.751,0.61,94,97,0.469,99.8,568,97.7,,,,,,,,,
CCN(Cc1c(F)cccc1Cl)c1cc(C2CCNCC2)nc(C)n1 [DDD01245231],0.763,0.55,91.3,99.4,0.504,99.8,2500,81.1,,,,,,,,,
CCC[C@H]1CN(S(=O)(=O)c2ccc(-c3c(C)noc3C)s2)C[C@@H]1N [DDD01245572],> 12.5,1,81.3,19,2.92,74.1,5570,55.3,,,,,,,,,
Clc1ccccc1C1(c2ccnc(C3CCCC3)n2)CCNCC1 [DDD01245610],4.17,0.49,87.3,92.8,0.755,98.9,3550,76.4,0.76,,,,,,,,
NCC1Cc2cc(-c3nccc(N4CCC(O)CC4)n3)cc(Cl)c2O1 (centres unmarked) [DDD01245918],2.64,0.55,92,75.2,1.96,96.7,4210,83.9,,,,,,,,,
CCCOc1ccc2ccccc2c1CN1CC[C@@]2(O)CCNC[C@H]2C1 [DDD01246029],2.85,1,,96.3,1.42,98.8,2760,96.5,,,,,,,,,
Clc1ccccc1C1(c2ccnc(C3CC3)n2)CCNCC1 [DDD01246037],7.25,0.61,89.2,,1.02,93.1,4410,78,,,,,,,,,
c1ccc(-c2nc3c(c(NCc4n[nH]c5c4CCC5)n2)CCNC3)cc1 [DDD01246472],4.12,0.92,92.6,97.5,0.635,99.5,2890,98.2,,,,,,,,,
CCN1CC(c2ccccc2)CC2(CCN(Cc3ncc[nH]3)CC2)C1 (centres unmarked) [DDD01246660],7.46,0.79,90.9,59,3.35,85.5,3390,89.2,,,,,,,,,
Cc1ccc2[nH]c(-c3cn(C4CCNCC4)nn3)nc2c1C [DDD01246711],2.21,0.43,94.9,79.2,2.07,99.2,4360,79.6,,,,,,,,,
Cc1cccc(CN2CCC(Cc3ccccc3F)CC2)n1 [DDD01246731],,,,,,,,,,2.01,1.12,,,0.529,5160,92.8,100
CCN1CCN(C[C@@H]2CN(c3ncc(Cl)cc3F)C[C@@H]2CO)CC1 [DDD01246828],1.58,0.63,94.8,98.3,0.961,99.3,1110,100,,,,,,,,,
CN[C@@H](C)C(=O)N(Cc1cccc(C)c1)Cc1ccccc1OC [DDD01246872],1.7,0.47,85.5,61.6,0.75,89.6,1070,62.7,,,,,,,,,
CN(Cc1ccccc1-n1cccn1)C[C@@H]1CCCN2CCCC[C@H]12 [DDD01246904],,,,,,,,,,> 12.5,1.88,85.8,53.8,3.73,8420,72.9,73.6
Cc1cc(-n2cccn2)ccc1CN1CCOCC(CN(C)C)C1 (centres unmarked) [DDD01247138],> 12.5,0.9,83,48,5.64,81.9,> 4160,60.8,,,,,,,,,
CC(C)CN1CCCC1c1ccc(C(=O)Nc2cccnc2)s1 (centres unmarked) [DDD01247321],4.09,0.77,91.9,94.3,2.12,99.9,4770,91.6,,,,,,,,,
CCN(CC)CCN(C)c1nc(-c2ccc(Cl)cc2)nc2c1CNC2 [DDD01247796],,,,,,,,,,3.45,1.5,94.9,74.2,2.79,4270,89.9,99.3
COc1cccc(CN(C)Cc2[nH]c3ccccc3c2C)c1O [DDD01247848],1.95,0.44,94.4,95.9,0.908,98.6,1050,98,,,,,,,,,
Cc1cccnc1[C@H](C)Nc1nc(-c2cccnc2)nc2c1CNC2 [DDD01248607],,,,,,,,,,1.59,1.6,92.2,79.2,1.37,3910,91.2,99.4
NC1(C(=O)NCC2CCCN(Cc3ccccc3F)C2)CCCC1 (centres unmarked) [DDD01249015],> 12.5,0.62,89.1,55.5,1.47,87.8,> 4160,77.3,,,,,,,,,
c1ccc(Oc2nccc3occc23)c(CN2CCCCC2)c1 [DDD01249169],> 12.5,0.69,87.1,34.1,1.52,78.9,7190,73.8,,,,,,,,,
CC(C)[C@@H]1CN(C(=O)C2(c3ccccc3)CCN(C)CC2)C[C@H]1N(C)C [DDD01249452],6.23,0.83,90.5,,2.18,95.6,3270,87.8,,,,,,,,,
CCc1ccc(CN(CCN(C)C)Cc2ccc(C)s2)nc1 [DDD01249772],,,,,,,,,,1.02,1.2,90.5,95.2,0.278,3000,93.4,101
